Experiment: Stabilizer screening (colloid stability after precipitation)
Assay type: physicochemical
Settings: Compound A 1.0 mg; for Observation: Stable for: at RT
Description: If the colloid solution was stable over 2 hours (no aggregation, sedimentation, crystal forming), and no aggregation occurred, the sample was lyophilized. • If precipitation occurred, however the colloid solution was not stable over the whole solid formulation procedure, other stabilizers were tested. Results

CC(C)(C)c1cc(-c2cc(-c3ccc(C(=O)O)cc3)ccc2OCCO)ccc1N1CCCC1 [Compound A, 3″-tert-butyl-4′-(2-hydroxyethoxy)-4″-pyrrolidin-1-yl[1,1′;3′,1″]-terphenyl-4-carboxylic acid]
stable for 5 min: Observation: Slightly opalescent colloid, stable for (2 mg Soluplus, 1 mL EtOH, 4 mL water)
Stable for 3 days at RT: Observation: Stable for (3 mg Luviskol VA64, 1 mL EtOH, 0.001M NaOH solution) | Observation: Stable for (3 mg Luviskol VA64, 1 mL EtOH, 0.01M NaOH solution) | Observation: Stable for (3 mg Luviskol VA64, 1 mL EtOH, 0.1M NaOH solution) | Observation: Stable for (3 mg Luviskol VA64, 1 mL EtOH, 7 mL 0.5 mg/mL NaOAc solution)
Aggregated within 1 day: Observation: Aggregated within (3 mg Luviskol VA64, 1 mL EtOH, 0.0001M NaOH solution) | Observation: Aggregated within (4 mg Luviskol VA64, 1 mL EtOH, 7 mL 0.5 mg/mL NaOAc solution) | Observation: Aggregated within (4 mg PVP40, 1 mL EtOH, 7 mL 0.5 mg/mL NaOAc solution)
Colloid, Stable for 15 min: Observation: Colloid, Stable for (2 mg PVP40, 1 mL EtOH, 4 mL water)
Aggregated after 25 min: Observation: Aggregated after (2 mg TPGS, 1 mL MeOH, 4 mL water)
Aggregated within 1 hour: Observation: Aggregated within (2 mg PVP10, 1 mL EtOH, 7 mL 0.5 mg/mL DSS solution) | Observation: Aggregated within (2 mg PVP10, 1 mL EtOH, 7 mL 0.5 mg/mL SDS solution) | Observation: Aggregated within (2 mg PVP40, 1 mL EtOH, 7 mL 0.5 mg/mL DSS solution) | Observation: Aggregated within (2 mg PVP40, 1 mL EtOH, 7 mL 0.5 mg/mL NaOAc solution) | Observation: Aggregated within (2 mg PVP40, 1 mL EtOH, 7 mL 0.5 mg/mL SDS solution) | Observation: Aggregated within (3 mg PVP10, 1 mL EtOH, 7 mL 0.5 mg/mL NaOAc solution) | Observation: Aggregated within (4 mg PVP10, 1 mL EtOH, 7 mL 0.5 mg/mL NaOAc solution)
Cloudy immediately: Observation (2 mg Pluronic PE6800, 1 mL MeOH, 4 mL water) | Observation (2 mg Pluronic PE10500, 1 mL MeOH, 4 mL water) | Observation (2 mg Tetronic, 1 mL MeOH, 4 mL water)
Aggregated within 5 min: Observation: Aggregated within (2 mg Soluplus, 1 mL ACE, 4 mL water) | Observation: Aggregated within (2 mg TPGS, 1 mL ACE, 4 mL water)
Aggregated immediately: Observation (2 mg PVP10, 1 mL EtOH, 7 mL 0.05 mg/mL SDS solution) | Observation (2 mg PVP10, 1 mL EtOH, 7 mL 0.05 mg/mL citric acid solution) | Observation (2 mg PVP10, 1 mL EtOH, 7 mL 0.5 mg/mL BAC solution) | Observation (2 mg PVP10, 1 mL EtOH, 7 mL 0.5 mg/mL Mannitol solution) | Observation (2 mg PVP10, 1 mL EtOH, 7 mL 0.5 mg/mL NaOAc solution) | Observation (2 mg PVP40, 1 mL EtOH, 7 mL 0.05 mg/mL BAC solution) | Observation (2 mg PVP40, 1 mL EtOH, 7 mL 0.05 mg/mL DSS solution) | Observation (2 mg PVP40, 1 mL EtOH, 7 mL 0.05 mg/mL Mannitol solution) | Observation (2 mg PVP40, 1 mL EtOH, 7 mL 0.05 mg/mL NaOAc solution) | Observation (2 mg PVP40, 1 mL EtOH, 7 mL 0.05 mg/mL SDS solution) | Observation (2 mg PVP40, 1 mL EtOH, 7 mL 0.05 mg/mL citric acid solution) | Observation (2 mg PVP40, 1 mL EtOH, 7 mL 0.5 mg/mL BAC solution) | Observation (2 mg PVP40, 1 mL EtOH, 7 mL 0.5 mg/mL Mannitol solution) | Observation (2 mg PVP40, 1 mL EtOH, 7 mL 0.5 mg/mL citric acid solution) | Observation (2 mg Pluronic PE6800, 1 mL ACE, 4 mL water) | Observation (2 mg Pluronic PE10500, 1 mL ACE, 4 mL water) | Observation (2 mg Solutol, 1 mL ACE, 4 mL water) | Observation (2 mg Tetronic, 1 mL ACE, 4 mL water) | Observation (3 mg Luviskol VA64, 1 mL EtOH, 7 mL 0.05 mg/mL NaOAc solution) | Observation (3 mg PVP10, 1 mL EtOH, 7 mL 0.05 mg/mL NaOAc solution) | Observation (3 mg PVP40, 1 mL EtOH, 7 mL 0.05 mg/mL NaOAc solution) | Observation (4 mg Luviskol VA64, 1 mL EtOH, 7 mL 0.05 mg/mL NaOAc solution) | Observation (4 mg PVP10, 1 mL EtOH, 7 mL 0.05 mg/mL NaOAc solution) | Observation (4 mg PVP40, 1 mL EtOH, 7 mL 0.05 mg/mL NaOAc solution)
Colloid, Stable for 5 min: Observation: Colloid, Stable for (2 mg PVPK90, 1 mL EtOH, 4 mL water)
Precipitation did not occur: Observation (2 mg PVP10, 1 mL MeOH, 4 mL water) | Observation (2 mg PVP40, 1 mL MeOH, 4 mL water) | Observation (2 mg PVPK90, 1 mL MeOH, 4 mL water) | Observation (2 mg Soluplus, 1 mL MeOH, 4 mL water)
Aggregated: Observation (2 mg PVP10, 1 mL IPA, 4 mL water) | Observation (2 mg PVP40, 1 mL IPA, 4 mL water) | Observation (2 mg PVPK90, 1 mL IPA, 4 mL water) | Observation (2 mg Pluronic PE6800, 1 mL EtOH, 4 mL water) | Observation (2 mg Pluronic PE6800, 1 mL IPA, 4 mL water) | Observation (2 mg Pluronic PE6800, 1 mL THF, 5 mL water) | Observation (2 mg Pluronic PE10500, 1 mL EtOH, 4 mL water) | Observation (2 mg Pluronic PE10500, 1 mL IPA, 4 mL water) | Observation (2 mg Pluronic PE10500, 1 mL THF, 4 mL water) | Observation (2 mg Soluplus, 1 mL THF, 4 mL water) | Observation (2 mg Solutol, 1 mL EtOH, 4 mL water) | Observation (2 mg Solutol, 1 mL IPA, 4 mL water) | Observation (2 mg Solutol, 1 mL MeOH, 4 mL water) | Observation (2 mg Solutol, 1 mL THF, 4 mL water) | Observation (2 mg TPGS, 1 mL EtOH, 4 mL water) | Observation (2 mg TPGS, 1 mL IPA, 4 mL water) | Observation (2 mg TPGS, 1 mL THF, 4 mL water) | Observation (2 mg Tetronic, 1 mL EtOH, 4 mL water) | Observation (2 mg Tetronic, 1 mL IPA, 4 mL water) | Observation (2 mg Tetronic, 1 mL THF, 4 mL water) | Observation (no stabilizer (—), 1 mL ACE, 4 mL water) | Observation (no stabilizer (—), 1 mL EtOH, 4 mL water) | Observation (no stabilizer (—), 1 mL IPA, 4 mL water) | Observation (no stabilizer (—), 1 mL MeOH, 4 mL water)
Stable for 1 day at RT: Observation: Stable for (3 mg PVP40, 1 mL EtOH, 7 mL 0.5 mg/mL NaOAc solution)

Source: patent US10925855B2, “Compositions comprising water dispersible nanoparticles of a retinoid compound” (GALDERMA RESEARCH & DEVELOPMENT, priority 2015, dated 2021)
